Results published in ChEMBL document CHEMBL5096180, “Pyrimidine-based EGFR TK inhibitors in targeted cancer therapy” (Eur J Med Chem, 2021).
“And” between values parts separate entries of the source, which are not always exact repeats. Equal values may be shown once.

Tests used:
[1] = tested on: Epidermal growth factor receptor (Homo sapiens), P00533 [L858R]; assay: Inhibition of EGFR L858R mutant (unknown origin) relative to control; settings: concentration not given here
[2] = tested on: Epidermal growth factor receptor (Homo sapiens), P00533 [L858R,T790M]; assay: Inhibition of EGFR T790M/L858R double mutant (unknown origin) relative to control
NCI-H1975 [3] = assay: Antiproliferative activity against human NCI-H1975 assessed as cell growth inhibition; format: functional, cell-based
HCC827 = assay: Antiproliferative activity against human HCC827 assessed as cell growth inhibition; format: functional, cell-based
[4] = molecular target: Epidermal growth factor receptor (Homo sapiens, UniProt P00533, C797S/L858R/T790M); assay: Inhibition of EGFR L858R/T790M/C797S triple mutant (unknown origin)
NCI-H1975 [5] = assay: Growth inhibition of human NCI-H1975 cells harbouring EGFR L858R/T790M double mutant; format: functional
PC-3 = assay: Anticancer activity against human PC-3 cells; format: functional, cell-based
HCT-116 = assay: Anticancer activity against human HCT-116 cells; format: functional, cell-based
[6] = molecular target: T1, Epidermal growth factor receptor (Homo sapiens, UniProt P00533); assay: Inhibition of EGFR (unknown origin) at 50 uM relative to control
[7] = molecular target: T1, Epidermal growth factor receptor; assay: Inhibition of EGFR (unknown origin) at 100 uM relative to control
HepG2 = assay: Anticancer activity against human HepG2 cells; format: functional, cell-based
[8] = molecular target: T2, Tyrosine-protein kinase JAK3 (Homo sapiens) (UniProt P52333); assay: Inhibition of JAK3 (unknown origin)
T2 sequence (whole entry): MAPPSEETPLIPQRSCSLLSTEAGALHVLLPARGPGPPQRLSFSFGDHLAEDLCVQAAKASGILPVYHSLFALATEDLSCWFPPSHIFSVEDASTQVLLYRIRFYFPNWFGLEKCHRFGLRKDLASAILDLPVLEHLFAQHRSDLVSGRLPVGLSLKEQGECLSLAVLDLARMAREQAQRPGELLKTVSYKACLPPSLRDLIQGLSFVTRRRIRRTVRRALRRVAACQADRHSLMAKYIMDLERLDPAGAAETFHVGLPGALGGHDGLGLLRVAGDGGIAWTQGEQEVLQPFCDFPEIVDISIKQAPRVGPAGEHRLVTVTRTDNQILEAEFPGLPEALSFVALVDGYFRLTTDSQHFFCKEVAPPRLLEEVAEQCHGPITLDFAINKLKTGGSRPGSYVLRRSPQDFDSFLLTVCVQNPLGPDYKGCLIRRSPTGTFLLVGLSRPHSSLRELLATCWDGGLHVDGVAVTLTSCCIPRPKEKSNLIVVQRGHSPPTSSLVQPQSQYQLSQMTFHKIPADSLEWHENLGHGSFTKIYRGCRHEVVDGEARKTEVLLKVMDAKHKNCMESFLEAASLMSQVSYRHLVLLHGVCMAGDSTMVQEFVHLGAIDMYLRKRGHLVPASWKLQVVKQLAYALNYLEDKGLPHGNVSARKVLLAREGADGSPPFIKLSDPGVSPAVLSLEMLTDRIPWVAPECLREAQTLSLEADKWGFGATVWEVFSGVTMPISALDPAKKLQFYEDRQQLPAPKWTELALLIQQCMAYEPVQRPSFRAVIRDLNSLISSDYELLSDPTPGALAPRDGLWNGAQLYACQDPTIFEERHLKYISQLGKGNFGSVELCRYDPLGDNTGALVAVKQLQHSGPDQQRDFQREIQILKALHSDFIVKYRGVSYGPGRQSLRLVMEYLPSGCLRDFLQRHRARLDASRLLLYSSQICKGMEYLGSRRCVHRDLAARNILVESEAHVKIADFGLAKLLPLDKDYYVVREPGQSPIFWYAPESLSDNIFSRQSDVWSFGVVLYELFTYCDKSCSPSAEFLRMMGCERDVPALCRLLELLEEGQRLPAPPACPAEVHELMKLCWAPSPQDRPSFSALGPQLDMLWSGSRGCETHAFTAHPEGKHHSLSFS

ACHN = assay: Anticancer activity against human ACHN cells assessed as cell viability incubated for 24 hrs by MTT assay; format: functional, cell-based
[9] = molecular target: Receptor tyrosine-protein kinase erbB-2 (Homo sapiens, UniProt P04626); assay: Inhibition of ErbB2 (unknown origin) pre-incubated for 5 mins followed by substrate addition and measured after 30 mins in presence of ATP by microtitre plate reader analysis
NCI-H460 = assay: Anticancer activity against human NCI-H460 cells assessed as cell viability incubated for 24 hrs by MTT assay; format: functional, cell-based
OVCAR-4 = assay: Anticancer activity against human OVCAR-4 cells assessed as cell viability incubated for 24 hrs by MTT assay; format: functional, cell-based; settings: OVCAR-4, 24 h
[10] = molecular target: Epidermal growth factor receptor (Homo sapiens, UniProt P00533, T790M); assay: Inhibition of EGFR T790M mutant (unknown origin)
NCI-H1975 [11] = assay: Antiproliferative activity against human NCI-H1975 cells assessed as cell growth inhibition incubated for 72 hrs by MTT assay; format: functional, cell-based; settings: NCI-H1975, 72 h
[12] = molecular target: Epidermal growth factor receptor (Homo sapiens, UniProt P00533, L858R/T790M); assay: Inhibition of EGFR L858R/T790M double mutant (unknown origin) in presence of ATP by ADP-Glo assay
BaF3 [13] = assay: Antiproliferative activity against mouse BAF3 cells harboring EGFR 19D/T790M/C797S triple mutant; format: functional, cell-based
BaF3 [14] = assay: Antiproliferative activity against mouse BAF3 cells harboring EGFR L858R/T790M/C797S triple mutant; format: functional, cell-based
EKVX = assay: Anticancer activity against human EKVX assessed as cell growth inhibition at 10 uM incubated for 48 hrs relative to control; format: functional; settings: pooled result: one value given for 8 cell lines, strains, targets or settings
[15] = molecular target: T1, Epidermal growth factor receptor; assay: Inhibition of recombinant C-terminal His-tagged/N-terminal GST-tagged human EGFR expressed in sf9 insect cells using poly(Glu, Tyr) sodium salt (4:1, Glu:Tyr) as a substrate measured after 40 mins by Kinase-Glo reagent based luminescence analysis
[16] = Inhibition of recombinant N-terminal GST-tagged human HER2 expressed in sf9 insect cells using poly(Glu, Tyr) sodium salt (4:1, Glu:Tyr) as a substrate measured after 40 mins by Kinase-Glo reagent based luminescence analysis
MCF7 [17] = assay: Anticancer activity against human MCF7 cells incubated for 48 hrs by MTT assay; format: functional, cell-based; settings: MCF7, 48 h
MCF7 [18] = assay: Potency index,ratio of test compound IC50 to Doxorubicin IC50 for antiproliferative activity against human MCF7 cells incubated for 48 hrs by MTT assay; format: functional
[19] = molecular target: T1, Epidermal growth factor receptor; assay: Inhibition of recombinant EGFR (unknown origin) using TMB as substrate incubated for 3 hrs in presence of ATP by ELISA
MCF7 [20] = assay: Potency index,ratio of test compound IC50 to Erlotinib IC50 for antiproliferative activity against human MCF7 cells incubated for 48 hrs by MTT assay; format: functional

T1 sequence (P00533 whole entry): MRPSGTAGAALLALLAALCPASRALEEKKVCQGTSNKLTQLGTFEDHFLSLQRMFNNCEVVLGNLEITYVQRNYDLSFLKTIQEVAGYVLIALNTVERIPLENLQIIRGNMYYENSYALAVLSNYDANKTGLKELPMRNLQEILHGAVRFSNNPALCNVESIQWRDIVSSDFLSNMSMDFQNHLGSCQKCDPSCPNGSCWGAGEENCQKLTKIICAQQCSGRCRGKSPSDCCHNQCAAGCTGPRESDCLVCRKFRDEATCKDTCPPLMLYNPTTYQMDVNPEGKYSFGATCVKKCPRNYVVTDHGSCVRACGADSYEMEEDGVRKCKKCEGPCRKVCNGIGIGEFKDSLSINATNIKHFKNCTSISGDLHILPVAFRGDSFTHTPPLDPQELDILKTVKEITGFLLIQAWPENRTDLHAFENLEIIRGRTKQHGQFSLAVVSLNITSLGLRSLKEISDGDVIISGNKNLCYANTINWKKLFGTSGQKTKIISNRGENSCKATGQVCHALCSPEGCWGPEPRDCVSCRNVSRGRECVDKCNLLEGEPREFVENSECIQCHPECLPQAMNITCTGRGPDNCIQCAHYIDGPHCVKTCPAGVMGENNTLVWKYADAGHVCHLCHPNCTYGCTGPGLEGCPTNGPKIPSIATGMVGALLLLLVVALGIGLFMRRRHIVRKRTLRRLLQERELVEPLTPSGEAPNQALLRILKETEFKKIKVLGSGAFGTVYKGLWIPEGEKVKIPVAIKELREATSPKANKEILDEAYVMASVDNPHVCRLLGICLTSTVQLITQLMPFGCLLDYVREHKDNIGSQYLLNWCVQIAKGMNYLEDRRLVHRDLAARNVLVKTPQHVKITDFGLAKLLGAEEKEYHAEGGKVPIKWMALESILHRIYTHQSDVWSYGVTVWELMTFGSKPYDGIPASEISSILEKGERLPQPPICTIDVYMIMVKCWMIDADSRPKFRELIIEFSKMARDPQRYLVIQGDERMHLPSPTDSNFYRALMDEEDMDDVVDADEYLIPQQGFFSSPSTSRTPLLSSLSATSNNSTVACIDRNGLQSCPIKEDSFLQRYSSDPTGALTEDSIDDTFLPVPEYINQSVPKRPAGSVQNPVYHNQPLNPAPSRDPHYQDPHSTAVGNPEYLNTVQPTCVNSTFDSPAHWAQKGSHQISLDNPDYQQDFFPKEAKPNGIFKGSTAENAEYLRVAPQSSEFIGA
Epidermal growth factor receptor (Homo sapiens, UniProt P00533, T790M), sequence (P00533 25-1210 T790M limits assumed): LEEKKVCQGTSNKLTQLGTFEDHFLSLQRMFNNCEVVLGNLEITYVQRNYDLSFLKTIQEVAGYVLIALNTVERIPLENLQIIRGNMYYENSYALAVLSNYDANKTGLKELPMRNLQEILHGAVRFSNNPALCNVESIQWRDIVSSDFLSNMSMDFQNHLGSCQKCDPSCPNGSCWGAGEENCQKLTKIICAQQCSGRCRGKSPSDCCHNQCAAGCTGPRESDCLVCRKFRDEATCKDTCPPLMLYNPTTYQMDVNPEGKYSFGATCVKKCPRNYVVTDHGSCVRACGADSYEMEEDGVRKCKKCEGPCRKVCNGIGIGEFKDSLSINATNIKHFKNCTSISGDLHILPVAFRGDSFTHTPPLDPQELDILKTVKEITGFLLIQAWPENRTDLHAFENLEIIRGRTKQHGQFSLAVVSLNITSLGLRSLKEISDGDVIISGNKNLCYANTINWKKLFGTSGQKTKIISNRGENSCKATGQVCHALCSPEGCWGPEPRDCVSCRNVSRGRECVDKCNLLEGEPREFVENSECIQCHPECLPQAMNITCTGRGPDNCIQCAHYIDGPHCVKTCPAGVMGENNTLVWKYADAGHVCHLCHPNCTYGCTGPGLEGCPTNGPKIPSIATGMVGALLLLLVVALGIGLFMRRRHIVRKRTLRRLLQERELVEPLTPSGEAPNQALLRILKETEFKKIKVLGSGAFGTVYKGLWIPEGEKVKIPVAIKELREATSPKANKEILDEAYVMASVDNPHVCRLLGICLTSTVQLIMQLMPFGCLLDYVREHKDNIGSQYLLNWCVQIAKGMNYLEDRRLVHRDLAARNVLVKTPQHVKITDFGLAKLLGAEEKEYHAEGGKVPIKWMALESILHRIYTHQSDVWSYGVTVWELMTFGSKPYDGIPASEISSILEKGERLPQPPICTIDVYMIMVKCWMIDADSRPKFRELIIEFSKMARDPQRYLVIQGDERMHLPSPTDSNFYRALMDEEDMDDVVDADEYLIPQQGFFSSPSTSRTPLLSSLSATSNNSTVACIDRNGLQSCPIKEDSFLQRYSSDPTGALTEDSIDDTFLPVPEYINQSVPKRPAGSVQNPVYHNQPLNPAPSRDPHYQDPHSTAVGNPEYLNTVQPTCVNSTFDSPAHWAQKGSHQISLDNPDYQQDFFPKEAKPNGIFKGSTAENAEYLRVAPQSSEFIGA
Epidermal growth factor receptor (Homo sapiens), P00533 [L858R,T790M], sequence (P00533 whole entry T790M/L858R, looked up): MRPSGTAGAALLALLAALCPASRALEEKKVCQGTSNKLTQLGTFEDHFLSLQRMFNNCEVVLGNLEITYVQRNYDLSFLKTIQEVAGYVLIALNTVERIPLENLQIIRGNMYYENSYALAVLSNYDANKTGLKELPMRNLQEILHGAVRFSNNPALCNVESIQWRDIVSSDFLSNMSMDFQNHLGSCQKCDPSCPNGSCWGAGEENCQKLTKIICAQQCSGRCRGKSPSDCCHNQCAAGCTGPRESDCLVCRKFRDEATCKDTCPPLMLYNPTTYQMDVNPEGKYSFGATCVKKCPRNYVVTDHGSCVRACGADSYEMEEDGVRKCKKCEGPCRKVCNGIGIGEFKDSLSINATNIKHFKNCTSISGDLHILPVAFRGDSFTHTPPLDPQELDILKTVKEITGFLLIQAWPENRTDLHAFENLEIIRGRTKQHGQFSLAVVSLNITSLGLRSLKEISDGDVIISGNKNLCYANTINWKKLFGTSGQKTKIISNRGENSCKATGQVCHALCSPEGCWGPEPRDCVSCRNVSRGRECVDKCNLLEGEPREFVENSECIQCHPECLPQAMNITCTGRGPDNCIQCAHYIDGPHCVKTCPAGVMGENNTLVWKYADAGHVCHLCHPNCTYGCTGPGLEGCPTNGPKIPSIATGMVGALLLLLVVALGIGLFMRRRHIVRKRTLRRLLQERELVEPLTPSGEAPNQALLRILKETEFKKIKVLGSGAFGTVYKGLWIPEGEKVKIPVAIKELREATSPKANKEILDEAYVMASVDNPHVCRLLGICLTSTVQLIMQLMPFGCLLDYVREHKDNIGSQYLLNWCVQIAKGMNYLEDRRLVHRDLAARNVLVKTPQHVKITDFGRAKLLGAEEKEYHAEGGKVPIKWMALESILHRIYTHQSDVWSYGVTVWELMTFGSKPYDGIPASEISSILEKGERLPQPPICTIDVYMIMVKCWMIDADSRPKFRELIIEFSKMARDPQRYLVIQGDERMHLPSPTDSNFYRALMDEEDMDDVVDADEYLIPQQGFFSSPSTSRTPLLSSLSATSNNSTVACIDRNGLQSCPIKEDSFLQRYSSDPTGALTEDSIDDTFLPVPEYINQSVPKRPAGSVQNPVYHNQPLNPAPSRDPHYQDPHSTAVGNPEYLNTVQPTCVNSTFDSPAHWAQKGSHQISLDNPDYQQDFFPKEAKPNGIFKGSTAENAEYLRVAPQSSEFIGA
Epidermal growth factor receptor (Homo sapiens, UniProt P00533, L858R/T790M), sequence (P00533 25-1210 T790M/L858R limits assumed): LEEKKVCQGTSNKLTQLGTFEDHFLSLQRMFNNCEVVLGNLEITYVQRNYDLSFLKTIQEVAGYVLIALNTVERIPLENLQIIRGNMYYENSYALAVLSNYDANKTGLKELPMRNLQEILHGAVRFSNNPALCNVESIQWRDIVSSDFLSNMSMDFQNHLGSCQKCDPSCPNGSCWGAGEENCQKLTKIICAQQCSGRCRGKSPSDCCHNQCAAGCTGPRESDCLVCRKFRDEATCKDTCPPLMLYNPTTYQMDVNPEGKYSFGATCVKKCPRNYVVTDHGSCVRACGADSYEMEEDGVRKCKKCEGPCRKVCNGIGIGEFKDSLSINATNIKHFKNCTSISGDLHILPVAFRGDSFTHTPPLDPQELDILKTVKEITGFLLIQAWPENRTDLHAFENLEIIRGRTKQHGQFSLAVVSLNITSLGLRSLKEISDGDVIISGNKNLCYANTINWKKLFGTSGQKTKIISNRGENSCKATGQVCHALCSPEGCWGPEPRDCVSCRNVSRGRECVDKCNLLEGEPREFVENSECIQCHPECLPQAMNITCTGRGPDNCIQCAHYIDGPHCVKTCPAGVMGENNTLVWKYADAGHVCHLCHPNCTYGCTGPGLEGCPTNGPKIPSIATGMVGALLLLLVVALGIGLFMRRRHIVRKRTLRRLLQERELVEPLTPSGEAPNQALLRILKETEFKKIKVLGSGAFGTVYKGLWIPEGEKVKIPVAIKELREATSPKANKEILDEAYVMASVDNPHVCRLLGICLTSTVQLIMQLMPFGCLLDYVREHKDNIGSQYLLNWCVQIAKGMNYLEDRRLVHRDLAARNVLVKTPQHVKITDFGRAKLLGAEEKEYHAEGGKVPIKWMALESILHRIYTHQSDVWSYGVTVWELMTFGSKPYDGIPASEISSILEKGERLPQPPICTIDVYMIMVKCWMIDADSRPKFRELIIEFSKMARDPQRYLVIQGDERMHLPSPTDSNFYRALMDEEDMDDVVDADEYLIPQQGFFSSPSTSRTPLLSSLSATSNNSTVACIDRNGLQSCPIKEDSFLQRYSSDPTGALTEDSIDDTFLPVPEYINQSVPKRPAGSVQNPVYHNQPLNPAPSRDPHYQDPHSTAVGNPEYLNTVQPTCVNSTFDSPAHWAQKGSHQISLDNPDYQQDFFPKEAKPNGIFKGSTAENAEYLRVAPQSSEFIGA

CCOC(=O)c1cnc(NC(N)=S)[nH]c1=O
inhibition [1]: 62% | inhibition [2]: 62%

CN(C)C1CCN(c2ccc(Nc3cc4c(N5CCC(CO)CC5)nc(Nc5ccc(F)cc5)nc4cn3)nc2)CC1
IC50 (NCI-H1975 [3]): 40 nM | IC50 (HCC827): 40 nM

C=CC(=O)N1CCCC(n2nc(-c3ccc4ccccc4c3)c3c(N)ncnc32)C1 (centres undefined)
IC50 [4]: 88 nM | GI50 (NCI-H1975 [5]): 140 nM

Cc1ccc(-c2cc(-c3ccc(Cl)cc3)nc3nc(-n4[nH]c(C)cc4=O)[nH]c(=O)c23)cc1
IC50 (PC-3): 6600 nM | IC50 (HCT-116): 7000 nM | inhibition [6]: 81% | inhibition [7]: 86% | IC50 (HepG2): 300 nM

CC#CC1=Nc2cc(Nc3nccc(-c4cn(C)c5ccccc45)n3)ccc2C(C)(C)O1
IC50 [8]: 60 nM

Cc1nn(-c2ccc(F)cc2)c2c(Nc3ccc(F)c(Cl)c3)ncnc12
IC50 (ACHN): 5530 nM | IC50 [9]: 250 nM | IC50 (NCI-H460): 1740 nM and 4440 nM | IC50 (OVCAR-4): 1740 nM

C=CC(=O)Nc1ccc(Nc2nccc(-c3cn(C)c4ccccc34)n2)cc1
IC50 [10]: 180 nM

C=CC(=O)Nc1cccc(Nc2nc(Nc3ccc(SCCCN4CCOCC4)cc3)ncc2Cl)c1
IC50 (NCI-H1975 [11]): 74 nM | IC50 [12]: 27.5 nM

CCC(=O)NC1CCC(N2C(=O)N(c3ccccc3Cl)Cc3cnc(Nc4ccc(N5CCN(C)CC5)c(C)c4)nc32)CC1 (centres undefined)
IC50 (BaF3 [13]): 310 nM | IC50 (BaF3 [14]): 290 nM

Fc1cccc(COc2ccc(Nc3ncnc4sc5c(c34)CCCC5)cc2Cl)c1
inhibition at 10 µM (EKVX): 42% | IC50 [15]: 200 nM | IC50 [16]: 500 nM

C=CC(=O)N1CCCC(n2nc(-c3cccc4ccccc34)c3c(N)ncnc32)C1 (centres undefined)
GI50 (NCI-H1975 [5]): 490 nM

C=CC(=O)N1CCCC(n2nc(-c3cn(C)c4ccccc34)c3c(N)ncnc32)C1 (centres undefined)
GI50 (NCI-H1975 [5]): 210 nM

C=CC(=O)Nc1cccc(Oc2nc(Nc3ccc(OC)cc3)nc3c2CSCC3)c1
IC50 (MCF7 [17]): 660 nM | Ratio IC50 (MCF7 [18]): 4.64 | IC50 [19]: 28 nM | Ratio IC50 (MCF7 [20]): 1.73

CC#CC(=O)Nc1ccc(Nc2nccc(-c3cn(C)c4ccccc34)n2)cc1
IC50 [10]: 220 nM

CCOC(=O)c1cnc(NC(N)=S)nc1C
inhibition [1]: 62% | inhibition [2]: 62%

C=CC(=O)Nc1cccc(Nc2nc(Nc3ccc(SCC(=O)N4CCOCC4)cc3)ncc2Cl)c1
IC50 [12]: 9.1 nM
